# In patent US11976062B2, “Benzisoxazole compound” (OSAKA UNIVERSITY, priority 2018, dated 2024):
# Experiments:
# [1] = tested on: α-SMA expression induced by TGFβ1 in dermal fibroblasts; test: Fibrosis inhibition evaluation 1: western blotting of α-SMA in dermal fibroblasts; type: cell-based, mice; conditions: compound 011 0.1, 1, 10 μM (especially 10 μM); Pyr 2 10 μM; TGFβ1 10 ng/ml, 48 hours
# Description: The expression of α-smooth muscle actin (α-SMA) in fibroblasts was evaluated by western blotting. Dermal fibroblasts were isolated from 1 to 3-day-old mice, and 2.5×10^5 cells were seeded in a 12-well plate. After 24 hours, the medium was replaced with a medium free of fetal bovine serum, and the cells were cultured for another 24 hours. Thereafter, 10 ng/ml of transforming growth factor β1 (TGFβ1) was added, and the cells were cultured for 48 hours. At the same time as TGFβ1 was added, a test compound (compound 011) of a predetermined concentration (0.1 μM, 1 μM, 10 μM) and 10 μM of Pyr 2 or DMSO (solvent control) were also added. […] The cultured cells were dissolved in a lysis buffer (140 mM NaCl, 20 mM Tris-HCl pH 7.8, 1% Triton-X100, 0.05% sodium deoxycholate, 0.1% SDS, 2 mM EDTA, proteinase inhibitor cocktail), and separated by SDS-PAGE, followed by detecting α-SMA using anti-α-SMA antibody (Sigma) as the primary antibody and anti-mouse IgG antibody (cell signaling) fused with horse radish peroxidase as the secondary antibody.
# [2] = tested on: α-SMA expression induced by TGFβ2 in cardiac fibroblasts; test: Fibrosis inhibition evaluation 2: immunofluorescent staining of α-SMA in cardiac fibroblasts; type: cell-based, rats; conditions: 10 μM, TGFβ2 2 ng/ml, 48 hours, FIG. 8
# Description: (§1) In the same manner as in Test Example 5, dermal fibroblasts were isolated from mice, and sterilized cover glass (diameter: 12 mm) was placed in a 12-well plate. On the cover glass, 2.5×10^5 cells were seeded and grown. After 24 hours, the medium was replaced with a medium free of fetal bovine serum, and the cells were cultured for another 24 hours. Separately, cardiac fibroblasts were isolated from 1 to 2-day-old rats and treated in the same manner as for the dermal fibroblasts. Thereafter, 10 ng/ml TGFβ1 was added to the dermal fibroblasts, and 2 ng/ml TGFβ2 was added to the cardiac fibroblasts, followed by culturing the cells for 48 hours. At the same time as TGFβ was added, 10 μM of a test compound (compound 011), 10 μM of Pyr 2 (conventional inhibitor), or DMSO (solvent control) was also added. Separately, cultured cells to which TGFβ-free phosphate buffered saline (PBS) was added were also prepared. […] After blocking with 1% bovine serum albumin, α-SMA was detected using anti-α-SMA antibody (Sigma) as the primary antibody and anti-mouse IgG antibody (Molecular Probes) fused with Alexa 488 as the secondary antibody, and an image was acquired using a fluorescence microscope (Keyence) with a 20× objective lens. The average fluorescence brightness (fluorescence intensity/pixel) per cell area was calculated and analyzed using Image J software.
# [3] = tested on: renal interstitial fibrosis caused by unilateral ureteral obstruction; conditions: mice; cited from earlier work
# [4] = tested on: α-SMA expression induced by TGFβ1 in dermal fibroblasts; test: Fibrosis inhibition evaluation 2: immunofluorescent staining of α-SMA in dermal fibroblasts; type: cell-based, mice; conditions: 10 μM, TGFβ1 10 ng/ml, 48 hours, FIG. 7
# Description: as §1
# dermal fibroblasts = test: Fibrosis inhibition evaluation 1: cell morphology observation of dermal fibroblasts; type: cell-based, mice; conditions: dermal fibroblasts cultured 48 hours with TGFβ1
smiles,measurement,setting,value
"Cc1nnsc1C(=O)Nc1ccc(-n2nc(C(F)(F)F)cc2C(F)(F)F)cc1 [Pyr 2, reference compound]",expression of α-SMA induced by TGFβ1 (western blotting),[1],lighter coloration of the α-SMA antibody compared with the control
same,expression of α-SMA induced by TGFβ (immunofluorescent staining),[2],almost completely suppressed the expression of α-SMA
same,suppression of renal interstitial fibrosis caused by unilateral ureteral obstruction,[3],suppresses renal interstitial fibrosis caused by unilateral ureteral obstruction
same,expression of α-SMA induced by TGFβ (immunofluorescent staining),[4],almost completely suppressed the expression of α-SMA
same,cell morphology / cell damage by microscopic observation,dermal fibroblasts,cell elongation
